# Assay results taken from ChEMBL document CHEMBL1126299, “Synthesis and structure-activity relationships of cephalosporins with C-3' catechol-containing residues” (J Med Chem, 1992).
# Tested on: Enterobacter cloacae
# Test: microbe, parasite or virus in culture
# Description: Minimum inhibitory concentration in Enterobacter cloacae, P99- inducible type 1 lactamase producer
row,SMILES,MIC [µg/mL]
1,Nc1nc(/C(=N/OC(C(=O)O)c2ccccc2)C(=O)N[C@@H]2C(=O)N3C(C(=O)O)=C(CNC(=O)c4cc(O)c(O)c(Br)c4)CSC23)cs1 (some centres undefined),0.06
2,Nc1nc(/C(=N/OC2(C(=O)O)CCCC2)C(=O)N[C@@H]2C(=O)N3C(C(=O)O)=C(CNC(=O)c4cc(O)c(O)c(Br)c4)CSC23)cs1 (some centres undefined),0.03

# Tested on: Citrobacter freundii
# Test: microbe, parasite or virus in culture
# Description: Minimum inhibitory concentration in Citrobacter freundii, DR 382031 constitutive depressed type 1
row,SMILES,MIC [µg/mL]
1,Nc1nc(/C(=N/OC(C(=O)O)c2ccccc2)C(=O)N[C@@H]2C(=O)N3C(C(=O)O)=C(CNC(=O)c4cc(O)c(O)c(Br)c4)CSC23)cs1 (some centres undefined),4
2,Nc1nc(/C(=N/OC2(C(=O)O)CCCC2)C(=O)N[C@@H]2C(=O)N3C(C(=O)O)=C(CNC(=O)c4cc(O)c(O)c(Br)c4)CSC23)cs1 (some centres undefined),4

# Tested on: Providencia stuartii
# Test: microbe, parasite or virus in culture
# Description: Minimum inhibitory concentration in Pseudomonas stuartii, I+442019 inducible type 1 lactamase producer
row,SMILES,MIC [µg/mL]
1,Nc1nc(/C(=N/OC(C(=O)O)c2ccccc2)C(=O)N[C@@H]2C(=O)N3C(C(=O)O)=C(CNC(=O)c4cc(O)c(O)c(Br)c4)CSC23)cs1 (some centres undefined),0.06
2,Nc1nc(/C(=N/OC2(C(=O)O)CCCC2)C(=O)N[C@@H]2C(=O)N3C(C(=O)O)=C(CNC(=O)c4cc(O)c(O)c(Br)c4)CSC23)cs1 (some centres undefined),0.03

# Tested on: Pseudomonas aeruginosa
# Test: microbe, parasite or virus in culture
# Description: Minimum inhibitory concentration in Pseudomonas aeruginosa,799WT parent organism
row,SMILES,MIC [µg/mL]
1,Nc1nc(/C(=N/OC(C(=O)O)c2ccccc2)C(=O)N[C@@H]2C(=O)N3C(C(=O)O)=C(CNC(=O)c4cc(O)c(O)c(Br)c4)CSC23)cs1 (some centres undefined),0.015
2,Nc1nc(/C(=N/OC2(C(=O)O)CCCC2)C(=O)N[C@@H]2C(=O)N3C(C(=O)O)=C(CNC(=O)c4cc(O)c(O)c(Br)c4)CSC23)cs1 (some centres undefined),0.008

# Tested on: Pseudomonas aeruginosa
# Test: microbe, parasite or virus in culture
# Remark: another data set of the same source
# Description: Minimum inhibitory concentration in Pseudomonas aeruginosa, 18S inducible type 1 lactamase producer
row,SMILES,MIC [µg/mL]
1,Nc1nc(/C(=N/OC(C(=O)O)c2ccccc2)C(=O)N[C@@H]2C(=O)N3C(C(=O)O)=C(CNC(=O)c4cc(O)c(O)c(Br)c4)CSC23)cs1 (some centres undefined),0.008
2,Nc1nc(/C(=N/OC2(C(=O)O)CCCC2)C(=O)N[C@@H]2C(=O)N3C(C(=O)O)=C(CNC(=O)c4cc(O)c(O)c(Br)c4)CSC23)cs1 (some centres undefined),0.015

# Tested on: Providencia stuartii
# Test: microbe, parasite or virus in culture
# Remark: another data set of the same source
# Description: Minimum inhibitory concentration in Pseudomonas stuartii, DR 442049 constitutive depressed type 1 lactamase producer
row,SMILES,MIC [µg/mL]
1,Nc1nc(/C(=N/OC(C(=O)O)c2ccccc2)C(=O)N[C@@H]2C(=O)N3C(C(=O)O)=C(CNC(=O)c4cc(O)c(O)c(Br)c4)CSC23)cs1 (some centres undefined),0.25
2,Nc1nc(/C(=N/OC2(C(=O)O)CCCC2)C(=O)N[C@@H]2C(=O)N3C(C(=O)O)=C(CNC(=O)c4cc(O)c(O)c(Br)c4)CSC23)cs1 (some centres undefined),2

# Tested on: Enterobacter cloacae
# Test: microbe, parasite or virus in culture
# Remark: another data set of the same source
# Description: Minimum inhibitory concentration in Enterobacter cloacae, P99+ constitutive depressed type 1 lactamase producer
row,SMILES,MIC [µg/mL]
1,Nc1nc(/C(=N/OC(C(=O)O)c2ccccc2)C(=O)N[C@@H]2C(=O)N3C(C(=O)O)=C(CNC(=O)c4cc(O)c(O)c(Br)c4)CSC23)cs1 (some centres undefined),2
2,Nc1nc(/C(=N/OC2(C(=O)O)CCCC2)C(=O)N[C@@H]2C(=O)N3C(C(=O)O)=C(CNC(=O)c4cc(O)c(O)c(Br)c4)CSC23)cs1 (some centres undefined),2

# Tested on: Enterobacter cloacae
# Test: microbe, parasite or virus in culture
# Remark: another data set of the same source
# Description: Minimum inhibitory concentration in Enterobacter cloacae, DR 401108 constitutive depressed type 1 lactamase producer
row,SMILES,MIC [µg/mL]
1,Nc1nc(/C(=N/OC(C(=O)O)c2ccccc2)C(=O)N[C@@H]2C(=O)N3C(C(=O)O)=C(CNC(=O)c4cc(O)c(O)c(Br)c4)CSC23)cs1 (some centres undefined),> 128
2,Nc1nc(/C(=N/OC2(C(=O)O)CCCC2)C(=O)N[C@@H]2C(=O)N3C(C(=O)O)=C(CNC(=O)c4cc(O)c(O)c(Br)c4)CSC23)cs1 (some centres undefined),16

# Tested on: Staphylococcus aureus
# Test: microbe, parasite or virus in culture
# Description: The compound was tested for minimum inhibitory concentration in Staphylococcus aureus,147N penicillin sensitive Staphylococcus aureus
row,SMILES,MIC [µg/mL]
1,Nc1nc(/C(=N/OC(C(=O)O)c2ccccc2)C(=O)N[C@@H]2C(=O)N3C(C(=O)O)=C(CNC(=O)c4cc(O)c(O)c(Br)c4)CSC23)cs1 (some centres undefined),16
2,Nc1nc(/C(=N/OC2(C(=O)O)CCCC2)C(=O)N[C@@H]2C(=O)N3C(C(=O)O)=C(CNC(=O)c4cc(O)c(O)c(Br)c4)CSC23)cs1 (some centres undefined),32

# Tested on: Citrobacter freundii
# Test: microbe, parasite or virus in culture
# Remark: another data set of the same source
# Description: Minimum inhibitory concentration in Citrobacter freundii, I+382010 inducible type 1 lactamase producer
row,SMILES,MIC [µg/mL]
1,Nc1nc(/C(=N/OC(C(=O)O)c2ccccc2)C(=O)N[C@@H]2C(=O)N3C(C(=O)O)=C(CNC(=O)c4cc(O)c(O)c(Br)c4)CSC23)cs1 (some centres undefined),0.008
2,Nc1nc(/C(=N/OC2(C(=O)O)CCCC2)C(=O)N[C@@H]2C(=O)N3C(C(=O)O)=C(CNC(=O)c4cc(O)c(O)c(Br)c4)CSC23)cs1 (some centres undefined),0.008

# Tested on: Enterobacter cloacae
# Test: microbe, parasite or virus in culture
# Remark: another data set of the same source
# Description: Minimum inhibitory concentration in Enterobacter cloacae, I+401029 inducible type 1 lactamase producer
row,SMILES,MIC [µg/mL]
1,Nc1nc(/C(=N/OC(C(=O)O)c2ccccc2)C(=O)N[C@@H]2C(=O)N3C(C(=O)O)=C(CNC(=O)c4cc(O)c(O)c(Br)c4)CSC23)cs1 (some centres undefined),0.03
2,Nc1nc(/C(=N/OC2(C(=O)O)CCCC2)C(=O)N[C@@H]2C(=O)N3C(C(=O)O)=C(CNC(=O)c4cc(O)c(O)c(Br)c4)CSC23)cs1 (some centres undefined),0.03

# Tested on: Staphylococcus aureus
# Test: microbe, parasite or virus in culture
# Remark: another data set of the same source
# Description: The compound was tested for minimum inhibitory concentration in Staphylococcus aureus Oxford penicillin sensitive Staphylococcus aureus
row,SMILES,MIC [µg/mL]
1,Nc1nc(/C(=N/OC(C(=O)O)c2ccccc2)C(=O)N[C@@H]2C(=O)N3C(C(=O)O)=C(CNC(=O)c4cc(O)c(O)c(Br)c4)CSC23)cs1 (some centres undefined),16
2,Nc1nc(/C(=N/OC2(C(=O)O)CCCC2)C(=O)N[C@@H]2C(=O)N3C(C(=O)O)=C(CNC(=O)c4cc(O)c(O)c(Br)c4)CSC23)cs1 (some centres undefined),16

# Tested on: Escherichia coli
# Test: microbe, parasite or virus in culture
# Description: In vitro minimum inhibitory concentration against Escherichia coli (DC0 parent organism).
row,SMILES,MIC [µg/mL]
1,Nc1nc(/C(=N/OC(C(=O)O)c2ccccc2)C(=O)N[C@@H]2C(=O)N3C(C(=O)O)=C(CNC(=O)c4cc(O)c(O)c(Br)c4)CSC23)cs1 (some centres undefined),0.008
2,Nc1nc(/C(=N/OC2(C(=O)O)CCCC2)C(=O)N[C@@H]2C(=O)N3C(C(=O)O)=C(CNC(=O)c4cc(O)c(O)c(Br)c4)CSC23)cs1 (some centres undefined),0.008

# Tested on: Pseudomonas aeruginosa
# Test: microbe, parasite or virus in culture
# Remark: another data set of the same source
# Description: Minimum inhibitory concentration in Pseudomonas aeruginosa, 18SH constitutive depressed type 1 lactamase producer
row,SMILES,MIC [µg/mL]
1,Nc1nc(/C(=N/OC(C(=O)O)c2ccccc2)C(=O)N[C@@H]2C(=O)N3C(C(=O)O)=C(CNC(=O)c4cc(O)c(O)c(Br)c4)CSC23)cs1 (some centres undefined),0.03
2,Nc1nc(/C(=N/OC2(C(=O)O)CCCC2)C(=O)N[C@@H]2C(=O)N3C(C(=O)O)=C(CNC(=O)c4cc(O)c(O)c(Br)c4)CSC23)cs1 (some centres undefined),0.008

# Tested on: Escherichia coli
# Test: microbe, parasite or virus in culture
# Remark: another data set of the same source
# Description: In vitro minimum inhibitory concentration against Escherichia coli (DC2 permeability mutant).
row,SMILES,MIC [µg/mL]
1,Nc1nc(/C(=N/OC(C(=O)O)c2ccccc2)C(=O)N[C@@H]2C(=O)N3C(C(=O)O)=C(CNC(=O)c4cc(O)c(O)c(Br)c4)CSC23)cs1 (some centres undefined),0.008
2,Nc1nc(/C(=N/OC2(C(=O)O)CCCC2)C(=O)N[C@@H]2C(=O)N3C(C(=O)O)=C(CNC(=O)c4cc(O)c(O)c(Br)c4)CSC23)cs1 (some centres undefined),0.008

# Tested on: Pseudomonas aeruginosa
# Test: microbe, parasite or virus in culture
# Remark: another data set of the same source
# Description: Minimum inhibitory concentration in Pseudomonas aeruginosa,799/61 permeability mutant
row,SMILES,MIC [µg/mL]
1,Nc1nc(/C(=N/OC(C(=O)O)c2ccccc2)C(=O)N[C@@H]2C(=O)N3C(C(=O)O)=C(CNC(=O)c4cc(O)c(O)c(Br)c4)CSC23)cs1 (some centres undefined),0.008
2,Nc1nc(/C(=N/OC2(C(=O)O)CCCC2)C(=O)N[C@@H]2C(=O)N3C(C(=O)O)=C(CNC(=O)c4cc(O)c(O)c(Br)c4)CSC23)cs1 (some centres undefined),0.008

# Tested on: Pseudomonas aeruginosa
# Test: microbe, parasite or virus in culture
# Remark: another data set of the same source
# Description: In vitro minimum inhibitory concentration against Pseudomonas aeruginosa (PU21).
row,SMILES,MIC [µg/mL]
1,Nc1nc(/C(=N/OC(C(=O)O)c2ccccc2)C(=O)N[C@@H]2C(=O)N3C(C(=O)O)=C(CNC(=O)c4cc(O)c(O)c(Br)c4)CSC23)cs1 (some centres undefined),0.015
2,Nc1nc(/C(=N/OC2(C(=O)O)CCCC2)C(=O)N[C@@H]2C(=O)N3C(C(=O)O)=C(CNC(=O)c4cc(O)c(O)c(Br)c4)CSC23)cs1 (some centres undefined),0.015
